Source: US20110144281A1, “AMPHIPHILIC POLYMERS HAVING A CHOLANE CORE” (VALORISATION-RECHERCHE, SOCIETE EN COMMANDITE, priority 2007, published 2011)

Tests used:
[1] = TEM of aggregates (freeze-fracture etching); assay type: physicochemical; conditions: TEM images; sodium cholate at 0.040 molal, CA-PEG4 above CAC
Protocol: For transmission electron microscopy (TEM), different sample concentrations were prepared in milli-Q water for freeze-fracture. A small amount of these solutions were dropped onto a good sample carrier, and then frozen in liquid propane. The frozen samples were then mounted on the sample holder of a BAL-TEC freeze etching instrument (model BAF060). Samples were then fractured, let sublimate for less than 30 seconds before the newly created surface was coated from an angle of 45° (shadowed) with 2 nm of platinum-doped carbon. A 10 nm layer of carbon was then applied perpendicularly. The samples were placed in distilled water to make the platinum-carbon replica float on the water surface. They were then deposited on carbon-coated copper grids. The replicas were examined on a JEOL JEM-2000FX TEM operating at an acceleration voltage of 80 kV.
TEM images of the star polymers shown in FIG. 8 provide unequivocal evidence for the formation of micellar aggregates.

[2] = literature (Reis et al. 2004); cited from earlier work
[3] = Loading of a drug: solubilisation of ibuprofen in water; assay type: physicochemical; conditions: after vigorous agitation

Row | SMILES | shape of aggregates [1] | CAC of sodium cholate [2] [millimolal] | solubility in neutral water [3]
1 | C[C@H](CCC(=O)[O-])[C@H]1CC[C@H]2[C@@H]3[C@H](O)C[C@@H]4C[C@H](O)CC[C@]4(C)[C@H]3C[C@H](O)[C@]12C.[Na+] [sodium cholate] | cylindrical | 8 | –
2 | CC(C)Cc1ccc(C(C)C(=O)O)cc1 (stereo not drawn) [Ibuprofen] | – | – | very limited
